Each structure is given as a SMILES string. “Also recorded” adds a separate entry of the source.

The subject of one data set is cultured neurons. Put plainly: LIVE/DEAD viability assay, kainic acid (KA)-induced cell death model. The data set is classed as cell-based, mouse. The conditions noted are these: sodium salt. From the text: Epileptic activity may induce cell death both in epileptic patients and animal models. Chen et al., “Differential roles of NR2A- and NR2B-containing NMDA receptors in activity-dependent brain-derived neurotrophic factor gene regulation and limbic epileptogenesis” The Journal Of Neuroscience: the official journal of the Society for Neuroscience 27:542-552 (2007); and Naseer et al., “Maternal epileptic seizure induced by pentylenetetrazol: apoptotic neurodegeneration and decreased GABAB1 receptor expression in prenatal rat brain” Molecular Brain 2:20 (2009). […] Wu et al., “Protective effect of resveratrol against kainate-induced temporal lobe epilepsy in rats” Neurochemical Research 34:1393-1400 (2009). In a control group, most neurons appeared to be healthy in morphology and were stained by calcein (green, live) but not ethidium homodimer-1 (EthD-1, red, death). See, FIG. 1J, left. […]
A LIVE/DEAD® Viability/Cytotoxicity Assay Kit (L3224, Life Technologies) containing ethidium homodimer-1 and calcein-AM was used to examine cell viability. Ethidium homodimer-1 binds to cellular DNA and typically labels dead cells in red fluorescence, while Calcein-AM can be cleaved by esterases in live cells to give strong green fluorescence. […] Cell survival and death rate were measured by quantifying the percentage of green and red fluorescent cells, respectively. […]

The target of the next data set is T1, CLC-3 Cl− channels (Mus musculus, UniProt P51791).
T1 construct: CA3 pyramidal neurons of hippocampal slices from neonatal mice; from tissue; host or cells: acute hippocampal slices (CA3 pyramidal neurons), C57BL/6 mice
T1 sequence (P51791 1-818): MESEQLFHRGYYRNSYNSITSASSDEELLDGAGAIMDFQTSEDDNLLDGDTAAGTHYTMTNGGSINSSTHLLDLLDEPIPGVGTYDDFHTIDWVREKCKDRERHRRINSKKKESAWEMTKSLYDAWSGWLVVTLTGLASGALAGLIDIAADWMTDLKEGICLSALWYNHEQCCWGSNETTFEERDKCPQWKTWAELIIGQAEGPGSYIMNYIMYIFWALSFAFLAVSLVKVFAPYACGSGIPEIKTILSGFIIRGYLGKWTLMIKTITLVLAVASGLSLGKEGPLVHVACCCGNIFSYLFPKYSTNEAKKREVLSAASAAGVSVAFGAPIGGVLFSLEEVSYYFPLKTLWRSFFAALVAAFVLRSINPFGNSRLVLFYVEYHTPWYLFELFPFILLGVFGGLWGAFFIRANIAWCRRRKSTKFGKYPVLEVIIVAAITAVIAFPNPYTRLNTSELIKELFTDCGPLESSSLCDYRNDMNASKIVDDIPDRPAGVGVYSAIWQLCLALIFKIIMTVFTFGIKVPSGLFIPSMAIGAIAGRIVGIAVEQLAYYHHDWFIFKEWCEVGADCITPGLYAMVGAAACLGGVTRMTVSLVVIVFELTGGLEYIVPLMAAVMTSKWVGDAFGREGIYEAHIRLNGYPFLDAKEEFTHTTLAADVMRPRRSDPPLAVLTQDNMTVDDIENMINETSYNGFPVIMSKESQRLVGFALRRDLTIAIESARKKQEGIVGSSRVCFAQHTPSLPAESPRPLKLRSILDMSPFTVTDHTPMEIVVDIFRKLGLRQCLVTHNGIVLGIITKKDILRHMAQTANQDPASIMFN
Put plainly: Voltage-dependent outward rectifying Cl− currents in CA3 pyramidal neurons of hippocampal slices. Type of data set: cell-based.

In data set [1] the test system is KA-induced epileptic burst activities. Put plainly: KA-induced epileptic burst activity in adult mice, EEG recording. The data set is classed as in vivo, mouse. Conditions: KA 10 mg/kg i.p., NaGcA 2 g/kg i.p., sodium salt. How it is done:
To test the in vivo anti-epilepsy effects of gluconate in neonatal and adult rodents, P8-12 Sprague-Dawley rats or 2-month old male C57BL/6 mice were deeply anesthetized with pentobarbital sodium (50 mg/kg for neonatal rat and 100 mg/kg for adult mice, intraperitoneal injection). Two stainless steel screws (1 mm in diameter) were inserted in the skull above the cortex as EEG recording electrodes, one ground electrode as well as one reference electrode were located +1.8 mm anterior to bregma, ±0.5 mm lateral to the midline, and 1 mm below the cortical surface. All electrodes were attached to a micro-connector and fixed onto the skull with dental cement. After surgery, neonatal rats were returned to their mothers and allowed to recover for 2 days prior to subsequent EEG recording. The adult mice were single housed in order to prevent damage of the implanted electrodes and allowed to recover at least 5 days before EEG recording.

Data set [2] deals with PTZ-induced seizure behavior. The data set can be described thus: Seizure behavior test (Racine score) after PTZ. The data set is classed as in vivo, mouse. The conditions noted are these: PTZ 50 mg/kg i.p., adult mice. On the procedure:
Male mice were divided into three groups: vehicle control group (saline, n=9), D-gluconic acid sodium at 1 g/kg group (n=10), and D-gluconic acid sodium at 2 g/kg group (n=11). PTZ (50 mg/kg) was intraperitoneally administered 1 hr after drug treatment. After PTZ injection, the behavior was monitored and observed for 1 hr. The seizure behavior was classified according to Racine Score: stage 0, no response; stage 1, facial twitching; stage 2, nod; stage 3, forelimb clonic, tail upright; stage 4, stand with forelimbs clonic; stage 5, stand and fall, jump, general clonic seizure, general clonic and tonic seizure or death. Racine et al., “Modification of seizure activity by electrical stimulation. 3. Mechanisms” Electroencephalogr Clin Neurophysiol 32:295-299 (1972).

The next data set deals with GABAA-R current. The data set can be described thus: GABAA-R current induced by isoguvacine before and after membrane depolarization (gramicidin-perforated recording). Type of data set: cell-based, mouse. The conditions noted are these: isoguvacine 100 μM; depolarization 40 mV, 10 s; NaGcA 20 mM. How it is done:
To investigate the effect of such long-lasting epileptiform bursts on GABA function, gramicidin-perforated whole-cell recordings were performed to keep the intracellular Cl− intact in neonatal animals. GABAA receptor (GABAA-R) currents induced by the receptor agonist isoguvacine (100 μM, 50 ms) before and after a membrane-depolarizing shift (40 mV for 10 s) that mimics the epileptiform burst activity. […] FIGS. 16B and 16C.

Regarding `O=C([O-])[C@H](O)[C@@H](O)[C@H](O)[C@H](O)CO.[Na+]` [NaGcA, D-gluconic acid sodium salt], the KA-induced neuronal death result in the data set on cultured neurons (10 μM KA for 24 hrs, co-application of 20 mM NaGcA) is recorded as “abolished; also recorded: neuron protection function”. In the data set on cultured neurons (20 mM NaGcA alone), the “neuron survival rate, NaGcA alone” value is “no side effect; also recorded: without any side effect”. At CLC-3 Cl− channels (0 Mg2+ aCSF 1 hr, 20 mM NaGcA, sodium salt), the “Cl− currents after 0 Mg2+ treatment (inhibition)” value is reported as “remarkable inhibition; also recorded: significantly inhibited; also recorded: significantly blocked; also recorded: remarkably inhibited”. Also, the “Cl− current density after 0 Mg2+ treatment” value on CLC-3 Cl− channels (0 Mg2+ aCSF 1 hr, recorded in 20 mM NaGcA, +90 mV) turned out to be 7.3±0.6 pA/pF. For the same compound, the “Cl− currents in neonatal CA3 pyramidal neurons” value on CLC-3 Cl− channels (20 mM NaGcA, neonatal, sodium salt) is on record as “dramatically reduced; also recorded: potent inhibitor; also recorded: remarkably inhibited”. Also, on CLC-3 Cl− channels (CLC-3 KO mice, NaGcA, sodium salt), the “Cl− currents in CLC-3 KO mice” value is “little inhibition; also recorded: no effect”. Further, the “Cl− current inhibition by gluconic acid with various counter ions” value at CLC-3 Cl− channels (P8-12 neonatal mice, 20 mM NaGcA, 10 mM Mg(GcA)2, 20 mM gluconic acid) is given as “equivalent Cl− current inhibition”. Further, the “Cl− currents in adult brains” value at CLC-3 Cl− channels (adult (P60-62), 20 mM NaGcA) was “no effect”. For the same compound, the “KA-induced epileptic burst activities / EEG power in adult animals” value in data set [1] (listed as gluconate) is listed as “less inhibition”. Also, the “KA-induced epileptic burst activities / EEG power in adult animals” value in data set [1] is listed as “modest effect; also recorded: modestly inhibited”. For the same compound, in data set [2], the behavioral seizure score entry is on record as “mild inhibitory effect”; the “latency of seizure behavior (Racine score 3 and above)” value is recorded as “dose-dependently prolonged”. The “depolarization-induced enhancement of GABAA-R current” value in the data set on GABAA-R current was “strongly inhibited”.

These data come from patent US11666640B2, “Glucose oxidase compositions as a neonate anticonvulsant” (PENN STATE RESEARCH FOUNDATION, priority 2018, dated 2023).
